Tests used:
[1] = tested on: Desulfovibrio gabonensis 700201; assay: H2S and Log (Growth) efficacy against SRB, 96-Well Plate Method; assay type: cell-based
Method: (§1) A lyophilized Desulfovibrio alaskensis 14563, Desulfovibrio longus 51456, and Desulfovibrio gabonensis 700201 pure cultures received from ATCC were resuspended individually in 500 ul of MB 1250. Aseptically, the content was transferred to a 5-mL tube of MB1250 medium. The cultures were incubated in an anaerobic chamber at 30° C. for 72 hrs. Subsequently, an individual stock culture with a final concentration of 25% glycerol were prepared by adding equal volumes of culture and 50% glycerol. 1 ml of the cultures were then transferred to 2-ml cryogenic vials and stored at −80° C. The purity of the stock cultures was evaluated through PCR, by amplifying the 16S rDNA region, and thus, it was verified that the original ATCC sample was a pure culture. 48-hour cultures of ATCC Desulfovibrio alaskensis 14563, Desulfovibrio longus 51456, and Desulfovibrio gabonensis 700201 were prepared in an anaerobic chamber. Each culture was prepared as a 1:10 culture by taking 1 milliliter (mL) of a pure culture and inoculating 9 milliliters (mL) of fresh MB1250 media. The Desulfovibrio alaskensis 14563 and Desulfovibrio gabonensis 700201 were all grown at 30° C. and the Desulfovibrio longus 51456 culture was grown at 35° C.
(§2) After the 48-hour incubation, 600 microliters (μL) were taken from each culture and optical density (OD) was measured using a Thermofisher Spectronic 200 Spectrophotometer at 600 nm. Each culture was diluted to 0.05 OD600 in fresh MB1250 media and added to the 96 well plates. Edge wells were not used due to their inherent variability and evaporation of the media. Each of the components were added at their respective concentrations for a final volume of 500 μL per well. In Table 3, 6 and 7, the concentrations of the compound used for the experiments are listed. Each experiment was done with at least three replicates for different treatments and non-treatment controls. From these test plates, 200 μL were taken and placed into two separate plates for 3 and 6 days. Plates were then sealed with a titer-top and placed into anaerobic boxes and incubated in an anaerobic incubator at 30° C.
(§3) At each time point, sulfide samples were taken, and enumeration plates were made. Enumeration plates were made to determine the log growth in each dosed sample. For this process, enumeration plates were prepared by adding 180 μL fresh media MB1250 containing 0.01 wt % ferrous ammonium sulfate. 20 μL was taken from each well of the challenge plates and transferred to the enumeration plates using a 20-200 μL multichannel pipette. Enumeration plates were mixed three times using the multichannel pipette and serial diluted down the plate tenfold (20 μL into 180 μL). This serial dilution process was repeated for all challenge plate rows giving a total of 6 enumeration plates.
(§4) After 7 days these enumeration plates were read. The ferrous ammonium sulfate in each plate would be converted to iron sulfide, changing wells with SRB growth from clear to black. By counting the number of black wells in a row, the log growth from the original well in the challenge plate can be determined.
(§5) To determine hydrogen sulfide production in each sample, sulfide samples were also taken from each challenge plate. From each well, 9 μL were taken and added to 60 μL of 2% zinc acetate with 0.02% acetic acid. Then, 180 μL of milliQ water was added. 60 μL of stock solution 1 containing 64% sulfuric acid, <1% Dimethyl-4-phenylenediamine (DMPD), water to 100% was added to each well on the plates. This was followed by 3 μL of stock solution 3 containing 50% Iron (III) chloride. All chemicals are ordered from Fisher Scientific and used as received. These were mixed three times and read after 15 minutes. The plates were read at 670 nm using a Biotek microplate reader. Absorbance readings were converted to mM using a standard curve and this was converted to parts per million using the molar mass of sulfur. […]

[2] = tested on: Desulfovibrio longus 51456; assay: as above; assay type: cell-based
Method: as §1, §2, §3, §4, §5

With `O=C(CN1C(=O)c2cccc3cccc(c23)C1=O)NO` [C1] as the compound, how does the H2S ([1]; 3 days, 6.4 PPM) read?
Its H2S is 12.4 PPM.

What about the “Log (Growth)” value ([1]; 3 days, 6.4 PPM) of the same compound?
Its value is 0.0.

What about the H2S ([1]; 3 days, 12.8 PPM) of the same compound?
Its H2S is 12.1 PPM.

What about the “Log (Growth)” value ([1]; 3 days, 12.8 PPM) of the same compound?
Its value is 0.0.

What about the H2S ([1]; 3 days, 25.6 PPM) of the same compound?
Its H2S is 11.1 PPM.

And the “Log (Growth)” value ([1]; 3 days, 25.6 PPM)?
The value was 0.0.

What about the H2S ([1]; 3 days, 51.3 PPM) of the same compound?
The H2S was 12.3 PPM.

What about the “Log (Growth)” value ([1]; 3 days, 51.3 PPM) of the same compound?
Its value is 0.0.

And the H2S ([1]; 3 days, 102.5 PPM)?
The H2S was 10.5 PPM.

What about the “Log (Growth)” value ([1]; 3 days, 102.5 PPM) of the same compound?
Its value is 0.0.

What about the H2S ([1]; 3 days, 205.0 PPM) of the same compound?
The H2S was 10.0 PPM.

And the “Log (Growth)” value ([1]; 3 days, 205.0 PPM)?
The value was 0.0.

What about the H2S ([1]; 6 days, 6.4 PPM) of the same compound?
The H2S was 18.1 PPM.

What about the “Log (Growth)” value ([1]; 6 days, 6.4 PPM) of the same compound?
Its value is 0.0.

And the H2S ([1]; 6 days, 12.8 PPM)?
Its H2S is 10.4 PPM.

And the “Log (Growth)” value ([1]; 6 days, 12.8 PPM)?
Its value is 0.0.

And the H2S ([1]; 6 days, 25.6 PPM)?
The H2S was 9.4 PPM.

What about the “Log (Growth)” value ([1]; 6 days, 25.6 PPM) of the same compound?
The value was 0.0.

And the H2S ([1]; 6 days, 51.3 PPM)?
The H2S was 8.4 PPM.

And the “Log (Growth)” value ([1]; 6 days, 51.3 PPM)?
Its value is 0.0.

And the H2S ([1]; 6 days, 102.5 PPM)?
The H2S was 8.6 PPM.

And the “Log (Growth)” value ([1]; 6 days, 102.5 PPM)?
Its value is 0.0.

What about the H2S ([1]; 6 days, 205.0 PPM) of the same compound?
Its H2S is 8.5 PPM.

And the “Log (Growth)” value ([1]; 6 days, 205.0 PPM)?
Its value is 0.0.

What about the H2S ([2]; 3 days, 6.4 PPM) of the same compound?
Its H2S is 9.8 PPM.

What about the “Log (Growth)” value ([2]; 3 days, 6.4 PPM) of the same compound?
The value was 0.0.

And the H2S ([2]; 3 days, 12.8 PPM)?
Its H2S is 9.3 PPM.

What about the “Log (Growth)” value ([2]; 3 days, 12.8 PPM) of the same compound?
The value was 0.0.

What about the H2S ([2]; 3 days, 25.6 PPM) of the same compound?
The H2S was 9.1 PPM.

What about the “Log (Growth)” value ([2]; 3 days, 25.6 PPM) of the same compound?
Its value is 0.0.

What about the H2S ([2]; 3 days, 51.3 PPM) of the same compound?
The H2S was 8.8 PPM.

What about the “Log (Growth)” value ([2]; 3 days, 51.3 PPM) of the same compound?
The value was 0.0.

And the H2S ([2]; 3 days, 102.5 PPM)?
The H2S was 8.6 PPM.

And the “Log (Growth)” value ([2]; 3 days, 102.5 PPM)?
The value was 0.0.

What about the H2S ([2]; 3 days, 205.0 PPM) of the same compound?
Its H2S is 8.7 PPM.

What about the “Log (Growth)” value ([2]; 3 days, 205.0 PPM) of the same compound?
The value was 0.0.

And the H2S ([2]; 6 days, 6.4 PPM)?
The H2S was 8.1 PPM.

What about the “Log (Growth)” value ([2]; 6 days, 6.4 PPM) of the same compound?
The value was 0.0.

And the H2S ([2]; 6 days, 12.8 PPM)?
The H2S was 7.9 PPM.

What about the “Log (Growth)” value ([2]; 6 days, 12.8 PPM) of the same compound?
Its value is 0.0.

What about the H2S ([2]; 6 days, 25.6 PPM) of the same compound?
The H2S was 7.3 PPM.

And the “Log (Growth)” value ([2]; 6 days, 25.6 PPM)?
Its value is 0.0.

What about the H2S ([2]; 6 days, 51.3 PPM) of the same compound?
Its H2S is 7.2 PPM.

And the “Log (Growth)” value ([2]; 6 days, 51.3 PPM)?
Its value is 0.0.

What about the H2S ([2]; 6 days, 102.5 PPM) of the same compound?
The H2S was 7.5 PPM.

And the “Log (Growth)” value ([2]; 6 days, 102.5 PPM)?
Its value is 0.0.

And the H2S ([2]; 6 days, 205.0 PPM)?
Its H2S is 8.1 PPM.

What about the “Log (Growth)” value ([2]; 6 days, 205.0 PPM) of the same compound?
Its value is 0.0.

Source: patent US20230183640A1, “METABOLIC INHIBITORS WITH EFFICACY FOR INHIBITING SULFIDE PRODUCTION IN HARSH ENVIRONMENTS” (MC (US) 3 LLC, priority 2020, published 2023)
